The target in this test is T1, elastase derived from human sputum (HSE) (Homo sapiens, UniProt P08246).
T1 construct: prepared from commercially available HSE (875 U/mg protein, SE-563, Elastin Product Co., Inc., Missouri, USA); purchased Elastin Product Co., Inc., Missouri, USA SE-563; host or cells: human sputum (natural enzyme)
T1 sequence (P08246 30-247 limits assumed): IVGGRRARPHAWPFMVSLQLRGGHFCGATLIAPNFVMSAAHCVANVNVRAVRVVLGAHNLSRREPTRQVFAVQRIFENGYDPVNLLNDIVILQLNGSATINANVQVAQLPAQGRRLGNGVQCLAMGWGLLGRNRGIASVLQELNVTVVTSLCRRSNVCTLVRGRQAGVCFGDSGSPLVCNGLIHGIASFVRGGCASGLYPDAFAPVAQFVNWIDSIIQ
Put plainly: In vitro inhibition of elastase (ONO-PO series). Type of test: biochemical. The note with it: substrate N-methoxysuccinyl-Ala-Ala-Pro-Val-p-nitroaniline, 37° C., pH 8.0, IC50 converted to Ki by Dixson plot.

SMILES strings stand for the structures.

As to `CC(C)[C@H](NC(=O)Cn1c(-c2ccc(F)cc2)ncc(N)c1=O)C(=O)c1nnc(C(C)(C)c2ccc(O)c(O)c2)o1` [ONO-PO-701, 2-[5-Amino-6-oxo-2-(4-fluorophenyl)-1,6-dihydro-1-pyrimidinyl]-N-[1-(2-[5-(α,α-dimethyl-3,4-dihydroxybenzyl)-1,3,4-oxadiazolyl]carbonyl)-2-(S)-methylpropyl]acetamide], the Ki (commonly the equilibrium dissociation constant of an inhibitor or competing ligand from its target) was determined as 2.98 nM. `Cc1cccc(Cc2nnc(C(=O)[C@@H](NC(=O)Cn3c(-c4ccc(F)cc4)ncc(NS(C)(=O)=O)c3=O)C(C)C)o2)c1` [ONO-PO-702, 2-[5-(Methylsulfonyl)amino-6-oxo-2-(4-fluorophenyl)-1,6-dihydro-1-pyrimidinyl]-N-[1-(2-[5-(3-methylbenzyl)-1,3,4-oxadiazolyl]carbonyl)-2-(S)-methylpropyl]acetamide] yielded a Ki of 1.78 nM. `CC(C)[C@H](NC(=O)Cn1c(-c2ccc(F)cc2)ncc(N)c1=O)C(=O)c1nnc(Cc2ccccc2)o1` [ONO-PO-703, 2-[5-Amino-6-oxo-2-(4-fluorophenyl)-1,6-dihydro-1-pyrimidinyl]-N-[1-(2-[5-benzyl-1,3,4-oxadiazolyl]carbonyl)-2-(S)-methylpropyl]acetamide] came in with a Ki of 2.25 nM. The figure for `Cc1nnc(C(=O)[C@@H](NC(=O)Cn2c(-c3ccc(F)cc3)ncc(N)c2=O)C(C)C)o1` [ONO-PO-704, 2-[5-Amino-6-oxo-2-(4-fluorophenyl)-1,6-dihydro-1-pyrimidinyl]-N-[1-(2-[5-methyl-1,3,4-oxadiazolyl]carbonyl)-2-(S)-methylpropyl]acetamide] is 14 nM; for `CC(C)c1nnc(C(=O)[C@@H](NC(=O)Cn2c(-c3ccc(F)cc3)ncc(N)c2=O)C(C)C)o1` [ONO-PO-705, 2-[5-Amino-6-oxo-2-(4-fluorophenyl)-1,6-dihydro-1-pyrimidinyl]-N-[1-(2-[5-isopropyl-1,3,4-oxadiazolyl]carbonyl)-2-(S)-methylpropyl]acetamide] it is 10.7 nM; for `CCCCc1nnc(C(=O)[C@@H](NC(=O)Cn2c(-c3ccc(F)cc3)ncc(N)c2=O)C(C)C)o1` [ONO-PO-706, 2-[5-Amino-6-oxo-2-(4-fluorophenyl)-1,6-dihydro-1-pyrimidinyl]-N-[1-(2-[5-butyl-1,3,4-oxadiazolyl]carbonyl)-2-(S)-methylpropyl]acetamide] it is 6.76 nM. For the compound `CC(C)C[C@@H]1NC(=O)N(CC(=O)N[C@H](C(=O)c2nnc(C(C)(C)C)o2)C(C)C)C1=O` [ONO-PO-708, 4-(S)-(2-Isobutyl)-2,5-imidazolidinedione-N-[1-(2-[5-tert-butyl-1,3,4-oxadiazolyl]carbonyl)-2-(S)-methylpropyl]acetamide], the Ki is 730 nM.

In turn, `CC(C)C[C@@H]1NC(=O)N(CC(=O)N[C@H](C(=O)c2nnc(C(C)(C)c3ccccc3)o2)C(C)C)C1=O` [ONO-PO-709, 4-(S)-(2-Isobutyl)-2,5-imidazolidinedione-N-[1-(2-[5-(α,α-dimethylbenzyl)-1,3,4-oxadiazolyl]carbonyl)-2-(S)-methylpropyl]acetamide] came in with a Ki of 25.7 nM.

Take `CC(C)[C@H](NC(=O)[C@@H]1CCCN1C(=O)[C@@H](NS(C)(=O)=O)C(C)C)C(=O)c1nnc(C(C)(C)c2ccccc2)o1` [ONO-PO-710, Methylsulfonyl-L-valyl-N-[1-(2-[5-(α,α-dimethylbenzyl)-1,3,4-oxadiazolyl]carbonyl)-2-(S)-methylpropyl]-L-prolinamide]: the affinity, expressed as Ki, was 2.39 nM. In turn, `CC(C)[C@H](NC(=O)Cn1c(-c2ccccc2)ncc(N)c1=O)C(=O)c1nnc(C(C)(C)c2ccccc2)o1` [ONO-PO-711, 2-[5-Amino-6-oxo-2-phenyl-1,6-dihydro-1-pyrimidinyl]-N-[1-(2-[5-(α,α-dimethylbenzyl)-1,3,4-oxadiazolyl]carbonyl)-2-(S)-methylpropyl]acetamide] showed a Ki of 2.55 nM. In the case of `CC(C)[C@H](NC(=O)Cn1c(-c2cccnc2)ncc(N)c1=O)C(=O)c1nnc(C(C)(C)C)o1` [ONO-PO-712, 2-[5-Amino-6-oxo-2-(3-pyridyl)-1,6-dihydro-1-pyrimidinyl]-N-[1-(2-[5-tert-butyl-1,3,4-oxadiazolyl]carbonyl)-2-(S)-methylpropyl]acetamide] it was 16.6 nM; in that of `CC(C)[C@H](NC(=O)[C@@H]1CCCN1C(=O)[C@@H](NS(C)(=O)=O)C(C)C)C(=O)c1nnc(C(C)(C)C)o1` [ONO-PO-713], 12 nM; in that of `CC(C)[C@H](NC(=O)Cn1c(-c2cccnc2)ncc(N)c1=O)C(=O)c1nnc(C(C)(C)c2ccccc2)o1` [ONO-PO-715, 2-[5-Amino-6-oxo-2-(3-pyridyl)-1,6-dihydro-1-pyrimidinyl]-N-[1-(2-[5-(α,α-dimethylbenzyl)-1,3,4-oxadiazolyl]carbonyl)-2-(S)-methylpropyl]acetamide], 3.54 nM.

Consider `CC(C)[C@H](NC(=O)CN1C(=O)CN=C(c2ccc(Cl)cc2)c2ccccc21)C(=O)c1nnc(C(C)(C)C)o1` [ONO-PO-717, 2-Oxo-5-(4-chlorophenyl)-1,4-benzodiazepine-N-[1-(2-[5-tert-butyl-1,3,4-oxadiazolyl]carbonyl)-2-(S)-methylpropyl]acetamide], for which the Ki amounted to 57.8 nM.

In turn, `CC(C)[C@H](NC(=O)CN1C(=O)N[C@H](C(C)C)C1=O)C(=O)c1nnc(C(C)(C)C)o1` [ONO-PO-719, 4-(R)-Isopropyl-2,5-imidazolidinedione-N-[1-(2-[5-tert-butyl-1,3,4-oxadiazolyl]carbonyl)-2-(S)-methylpropyl]acetamide] had a Ki of 836 nM. Compound `CC(C)[C@H](NC(=O)CN1C(=O)N[C@H](C(C)C)C1=O)C(=O)c1nnc(C(C)(C)c2ccccc2)o1` [ONO-PO-720, 4-(R)-Isopropyl-2,5-imidazolidinedione-N-[1-(2-[5-(α,α-dimethylbenzyl)-1,3,4-oxadiazolyl]carbonyl)-2-(S)-methylpropyl]acetamide] came in with a Ki of 25.9 nM. In the case of `CC(C)[C@H](NC(=O)Cn1c(-c2ccc(F)cc2)nccc1=O)C(=O)c1nnc(C(C)(C)c2ccccc2)o1` [ONO-PO-722, 2-[6-Oxo-2-(4-fluorophenyl)-1,6-dihydro-1-pyrimidinyl]-N-[1-(2-[5-(α,α-dimethylbenzyl)-1,3,4-oxadiazolyl]carbonyl)-2-(S)-methylpropyl]acetamide] it was 3.35 nM. The figure for `CC(C)[C@H](NC(=O)CN1C(=O)N[C@H](Cc2c[nH]c3ccccc23)C1=O)C(=O)c1nnc(C(C)(C)C)o1` [ONO-PO-723, 4-(R)-(3-Indolemethylene)-2,5-imidazolidinedione-N-[1-(2-[5-tert-butyl-1,3,4-oxadiazolyl]carbonyl)-2-(S)-methylpropyl]acetamide] is 163 nM; for `CC(C)[C@H](NC(=O)CN1C(=O)N[C@H](Cc2c[nH]c3ccccc23)C1=O)C(=O)c1nnc(C(C)(C)c2ccccc2)o1` [ONO-PO-724, 4-(R)-(3-Indolemethylene)-2,5-imidazolidinedione-N-[1-(2-[5-(α,α-dimethylbenzyl)-1,3,4-oxadiazolyl]carbonyl)-2-(S)-methylpropyl]acetamide] it is 14.4 nM. Compound `CC(C)[C@H](NC(=O)Cn1c(-c2ccccc2)cccc1=O)C(=O)c1nnc(C(C)(C)C)o1` [ONO-PO-725, 2-[6-Oxo-2-phenyl-1,6-dihydro-1-pyridinyl]-N-[1-(2-[5-tert-butyl-1,3,4-oxadiazolyl]carbonyl)-2-(S)-methylpropyl]acetamide] registered a Ki of 4280 nM.

With `CC(C)[C@H](NC(=O)Cn1c(-c2ccccc2)cccc1=O)C(=O)c1nnc(C(C)(C)c2ccccc2)o1` [ONO-PO-726, 2-[6-Oxo-2-phenyl-1,6-dihydro-1-pyridinyl]-N-[1-(2-[5-(α,α-dimethylbenzyl)-1,3,4-oxadiazolyl]carbonyl)-2-(S)-methylpropyl]acetamide], the Ki is 590 nM.

`CC(C)[C@H](NC(=O)Cn1c(-c2ccccc2)ncc(N)c1=O)C(=O)c1nnc(C2(C)CC2)o1` [ONO-PO-728, 2-[5-Amino-6-oxo-2-phenyl-1,6-dihydro-1-pyrimidinyl]-N-[1-(2-[5-(1-methylcyclopropyl)-1,3,4-oxadiazolyl]carbonyl)-2-(S)-methylpropyl]acetamide] showed a Ki of 8.75 nM. Compound `CC(C)[C@H](NC(=O)Cn1c(-c2ccccc2)nccc1=O)C(=O)c1nnc(C(C)(C)C)o1` [ONO-PO-730, 2-[6-Oxo-2-phenyl-1,6-dihydro-1-pyrimidinyl]-N-[1-(2-[5-tert-butyl-1,3,4-oxadiazolyl]carbonyl)-2-(S)-methylpropyl]acetamide] had a Ki of 23.5 nM. The figure for `CC(C)[C@H](NC(=O)Cn1c(-c2ccccc2)nccc1=O)C(=O)c1nnc(C(C)(C)c2ccccc2)o1` [ONO-PO-731, 2-[6-Oxo-2-phenyl-1,6-dihydro-1-pyrimidinyl]-N-[1-(2-[5-α,α-dimethylbenzyl-1,3,4-oxadiazolyl]carbonyl)-2-(S)-methylpropyl]acetamide] is 4.02 nM; for `CC(C)[C@@H](NC(=O)Cn1c(-c2ccccc2)nccc1=O)C(=O)c1nnc(C(C)(C)C)o1` [ONO-PO-732, 2-[6-Oxo-2-phenyl-1,6-dihydro-1-pyrimidinyl]-N-[1-(2-[5-tert-butyl-1,3,4-oxadiazolyl]carbonyl)-2-(R)-methylpropyl]acetamide] it is 62.2 nM. For `CC(C)[C@H](NC(=O)Cn1c(-c2ccc(F)cc2)nccc1=O)C(=O)c1nnc(C2(C)CC2)o1` [ONO-PO-734, 2-[6-Oxo-2-(4-fluorophenyl)-1,6-dihydro-1-pyrimidinyl]-N-[1-(2-[5-(1-methylcyclopropyl)-1,3,4-oxadiazolyl]carbonyl)-2-(S)-methylpropyl]acetamide], the affinity, expressed as Ki, was 43.8 nM.

(Values after patent US6656911B2, “Serine protease inhibitors” (Cortech, Inc., priority 1994, dated 2003).)
